In patent US20260297070A1, “CYCLIC [COMPOUND LEFT OUT] WRN INHIBITORS” (Nimbus Wadjet, Inc., priority 2023, published 2026):

The molecules below were run against T1, human Werner helicase (WRN-BV08, Uniprot Q14191, amino acids 517-1235 with L1074F point mutation) (Homo sapiens, UniProt Q14191, L1074F) (assay: WRN (BV08) ADP-Glo Assay). Conditions: 0.15 nM WRN, 5 μM ATP, 0.1 nM DNA duplex, 15 min preincubation, 60 min at 25° C., pH 7.5, 1% DMSO; read-out: ADP-Glo_hWRN_IC50.
T1 construct: Uniprot Q14191, amino acids 517-1235 with L1074F point mutation; TEV-cleavable 8×His (C, cleaved yes); made in house; host or cells: Sf9 insect cells (baculovirus)
Assay type: biochemical
How it was run: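 WRN 0.15 nM + cpd, 15 min 25 °C; add 5 μM ATP / 0.1 nM annealed DNA duplex; 60 min 25 °C; ADP-Glo stop, RLU. Buffer 20 mM Bicine pH 7.5, 1 mM MgCl2, 10 mM KCl, 1 mM TCEP. IC50, 4-parameter fit.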

T1 sequence (Q14191 with tags, fused parts or gaps L1074F limits assumed): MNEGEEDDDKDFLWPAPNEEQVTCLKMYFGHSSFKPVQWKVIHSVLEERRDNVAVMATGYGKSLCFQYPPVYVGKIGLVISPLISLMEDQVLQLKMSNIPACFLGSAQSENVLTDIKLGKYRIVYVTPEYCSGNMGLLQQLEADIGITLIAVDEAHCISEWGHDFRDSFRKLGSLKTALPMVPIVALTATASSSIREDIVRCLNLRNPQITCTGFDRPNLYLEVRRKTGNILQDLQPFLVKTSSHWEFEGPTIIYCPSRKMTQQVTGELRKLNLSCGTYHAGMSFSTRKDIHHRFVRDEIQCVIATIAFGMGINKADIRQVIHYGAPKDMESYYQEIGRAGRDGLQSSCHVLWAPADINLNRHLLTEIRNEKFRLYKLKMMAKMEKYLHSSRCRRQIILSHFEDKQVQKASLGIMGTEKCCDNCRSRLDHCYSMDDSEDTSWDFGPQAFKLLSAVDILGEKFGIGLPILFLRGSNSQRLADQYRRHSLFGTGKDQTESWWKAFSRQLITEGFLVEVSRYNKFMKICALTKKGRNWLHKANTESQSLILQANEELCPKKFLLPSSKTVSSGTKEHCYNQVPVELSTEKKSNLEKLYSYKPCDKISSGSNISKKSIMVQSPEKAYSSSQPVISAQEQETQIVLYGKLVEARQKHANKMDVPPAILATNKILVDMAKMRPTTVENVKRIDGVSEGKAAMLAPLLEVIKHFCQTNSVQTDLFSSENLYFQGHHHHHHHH

SMILES | IC50
COc1cc(C(C)N(C(=O)Cn2cc(-c3cc(F)c(F)c(F)c3)cn2)C2C=CS(=O)(=O)C2)ccn1 (single isomer, unassigned) [I-828, N-[(3R**)-1,1-dioxo-2,3-dihydro-1lambda6-thiophen-3-yl]-N-[(1R*)-1-(2-methoxypyridin-4-yl)ethyl]-2-[4-(3,4,5-trifluorophenyl)-1H-pyrazol-1-yl]acetamide] | 500 to 5000 nM
COc1cc(C(C)N(C(=O)Cn2cc(-c3cc(F)c(F)c(F)c3)cn2)C2C=CS(=O)(=O)C2)ccn1 (single isomer, unassigned) [I-830, N-[(3R**)-1,1-dioxo-2,3-dihydro-1lambda6-thiophen-3-yl]-N-[(1R*)-1-(2-methoxypyridin-4-yl)ethyl]-2-[4-(3,4,5-trifluorophenyl)-1H-pyrazol-1-yl]acetamide] | 5000 to 10000 nM
COc1cc(C(C)N(C(=O)Cn2cc(-c3cc(F)c(F)c(F)c3)cn2)C2C=CS(=O)(=O)C2)ccn1 (single isomer, unassigned) [I-831, N-[(3R**)-1,1-dioxo-2,3-dihydro-1lambda6-thiophen-3-yl]-N-[(1R*)-1-(2-methoxypyridin-4-yl)ethyl]-2-[4-(3,4,5-trifluorophenyl)-1H-pyrazol-1-yl]acetamide] | 500 to 5000 nM
COc1cc(CN(C(=O)C(OC2CS(=O)(=O)C2)c2ccc(-c3ccc(F)c(F)c3)cc2F)[C@@H]2C=CS(=O)(=O)C2)ccn1 (single isomer, unassigned) [I-834, (2R*)-2-[(1,1-dioxo-1lambda6-thietan-3-yl)oxy]-N-[(3R)-1,1-dioxo-2,3-dihydro-1lambda6-thiophen-3-yl]-N-[(2-methoxypyridin-4-yl)methyl]-2-{3,3′,4′-trifluoro-[1,1′-biphenyl]-4-yl}acetamide] | > 50000 nM
COc1cc(CN(C(=O)C(OC2CS(=O)(=O)C2)c2ccc(-c3ccc(F)c(F)c3)cc2F)[C@@H]2C=CS(=O)(=O)C2)ccn1 (single isomer, unassigned) [I-835, (2R*)-2-[(1,1-dioxo-1lambda6-thietan-3-yl)oxy]-N-[(3R)-1,1-dioxo-2,3-dihydro-1lambda6-thiophen-3-yl]-N-[(2-methoxypyridin-4-yl)methyl]-2-{3,3′,4′-trifluoro-[1,1′-biphenyl]-4-yl}acetamide] | 5000 to 10000 nM
Cc1cccn1-c1ccc(CC(=O)N(Cc2ccc(C(=O)N(C)Cc3cn(Cc4ccc(NC(=O)CCOCCOCCOCCOCCNC(=O)CCCC[C@@H]5SC[C@@H]6NC(=O)N[C@@H]65)cn4)nn3)cc2)C2C=CS(=O)(=O)C2)c(F)c1 (single isomer, unassigned) [II-1] | 500 to 5000 nM
CC(C)(O)c1cc(CN(C(=O)C(OCC2CC(F)(F)C2)c2ccc(-c3ccc(F)c(F)c3)cc2F)[C@@H]2C=CS(=O)(=O)C2)ccn1 (stereo in doubt) [I-792, rel-2-[(3,3-difluorocyclobutyl)methoxy]-N-[(3R)-1,1-dioxo-2,3-dihydro-1lambda6-thiophen-3-yl]-N-{[2-(2-hydroxypropan-2-yl)pyridin-4-yl]methyl}-2-{3,3′,4′-trifluoro-[1,1′-biphenyl]-4-yl}acetamide] | 500 to 5000 nM
CNC(=O)C(C(=O)N(Cc1ccnc(C(C)(C)O)c1)[C@@H]1C=CS(=O)(=O)C1)c1ccc(-c2ccc(F)c(F)c2)cc1F (stereo partly drawn) [I-3, N1-(1,1-dioxido-2,3-dihydrothiophen-3-yl)-N1-((2-(2-hydroxypropan-2-yl)pyridin-4-yl)methyl)-N3-methyl-2-(3,3′,4′-trifluoro-[1,1′-biphenyl]-4-yl)malonamide] | < 500 nM
CC(C)(O)c1cc(CN(C(=O)Cn2cc(-c3ccc(F)c(F)c3)cn2)[C@@H]2C=CS(=O)(=O)C2)ccn1 [I-6, (R)-2-(4-(3,4-difluorophenyl)-1H-pyrazol-1-yl)-N-(1,1-dioxido-2,3-dihydrothiophen-3-yl)-N-((2-(2-hydroxypropan-2-yl)pyridin-4-yl)methyl)acetamide] | < 500 nM
CC(C)(O)c1cc(CN(C(=O)Cn2cc3cc(S(F)(F)(F)(F)F)ccc3n2)[C@@H]2C=CS(=O)(=O)C2)ccn1 [I-7, (R)—N-(1,1-dioxido-2,3-dihydrothiophen-3-yl)-N-((2-(2-hydroxypropan-2-yl)pyridin-4-yl)methyl)-2-(5-(pentafluoro-λ^6-sulfaneyl)-2H-indazol-2-yl)acetamide] | < 500 nM
COc1cc(CN(C(=O)[C@H](C(=O)N(C)C)c2ccc(-c3ccc(F)cc3)cc2F)[C@@H]2C=CS(=O)(=O)C2)ccn1 [I-9, (2S)-2-{3,4′-difluoro-[1,1′-biphenyl]-4-yl}-N-[(3R)-1,1-dioxo-2,3-dihydro-1lambda6-thiophen-3-yl]-N-[(2-methoxypyridin-4-yl)methyl]-N′,N′-dimethylpropanediamide] | < 500 nM
CC(C)(O)c1cc(CN(C(=O)Cn2ccc(-c3ccc(F)c(F)c3)cc2=O)[C@@H]2C=CS(=O)(=O)C2)ccn1 [I-13, (R)-2-(4-(3,4-difluorophenyl)-2-oxopyridin-1(2H)-yl)-N-(1,1-dioxido-2,3-dihydrothiophen-3-yl)-N-((2-(2-hydroxypropan-2-yl)pyridin-4-yl)methyl)acetamide] | < 500 nM
O=C(Cc1ccc(S(F)(F)(F)(F)F)cc1)N(Cc1nc(C2CCC2)cs1)C1C=CS(=O)(=O)C1 (stereo not drawn) [I-14, N-[(4-cyclobutyl-1,3-thiazol-2-yl)methyl]-N-(1,1-dioxo-2,3-dihydro-1lambda6-thiophen-3-yl)-2-[4-(pentafluoro-lambda6-sulfanyl)phenyl]acetamide] | < 500 nM
CC(C)(O)c1cc(CN(C(=O)Cn2cc(-c3ccc(F)cc3)cn2)[C@@H]2C=CS(=O)(=O)C2)ccn1 [I-15, N-[(3R)-1,1-dioxo-2,3-dihydro-1lambda6-thiophen-3-yl]-2-[4-(4-fluorophenyl)-1H-pyrazol-1-yl]-N-{[2-(2-hydroxypropan-2-yl)pyridin-4-yl]methyl}acetamide] | < 500 nM
CC(C)(O)c1cc(CN(C(=O)Cc2ccc(S(F)(F)(F)(F)F)cc2)[C@@H]2C=CS(=O)(=O)C2)ccn1 [I-16, (R)—N-(1,1-dioxido-2,3-dihydrothiophen-3-yl)-N-((2-(2-hydroxypropan-2-yl)pyridin-4-yl)methyl)-2-(4-(pentafluoro-λ^6-sulfaneyl)phenyl)acetamide] | < 500 nM
COc1cc(CN(C(=O)Cc2ccc(S(F)(F)(F)(F)F)cc2)[C@@H]2C=CS(=O)(=O)C2)ccn1 [I-17, N-[(3R)-1,1-dioxo-2,3-dihydro-1lambda6-thiophen-3-yl]-N-[(2-methoxypyridin-4-yl)methyl]-2-[4-(pentafluoro-lambda6-sulfanyl)phenyl]acetamide] | < 500 nM
COC(C(=O)N(Cc1ccnc(C(C)(C)O)c1)C1C=CS(=O)(=O)C1)c1ccc(-c2ccc(F)c(F)c2)cc1F (stereo not drawn) [I-18, N-(1,1-dioxo-2,3-dihydro-1lambda6-thiophen-3-yl)-N-{[2-(2-hydroxypropan-2-yl)pyridin-4-yl]methyl}-2-methoxy-2-{3,3′,4′-trifluoro-[1,1′-biphenyl]-4-yl}acetamide] | < 500 nM
CC(C)(O)c1cc(CN(C(=O)Cc2ccc(-c3cc(F)c(F)c(F)c3)cc2F)C2C=CS(=O)(=O)C2)ccn1 (stereo not drawn) [I-19, N-(1,1-dioxo-2,3-dihydro-1lambda6-thiophen-3-yl)-N-{[2-(2-hydroxypropan-2-yl)pyridin-4-yl]methyl}-2-{3,3′,4′,5′-tetrafluoro-[1,1′-biphenyl]-4-yl}acetamide] | < 500 nM
COCCN(C)C(=O)C(C(=O)N(Cc1ccnc(C(C)(C)O)c1)[C@@H]1C=CS(=O)(=O)C1)c1ccc(-c2ccc(F)c(F)c2)cc1F (stereo partly drawn) [I-20, N′-[(3R)-1,1-dioxo-2,3-dihydro-1lambda6-thiophen-3-yl]-N′-{[2-(2-hydroxypropan-2-yl)pyridin-4-yl]methyl}-N-(2-methoxyethyl)-N-methyl-2-{3,3′,4′-trifluoro-[1,1′-biphenyl]-4-yl}propanediamide] | < 500 nM
CN(C)C(=O)C(C(=O)N(Cc1ccnc(C(C)(C)O)c1)C1C=CS(=O)(=O)C1)c1ccc(-c2ccc(F)cc2)cc1F (stereo not drawn) [I-21, 2-{3,4′-difluoro-[1,1′-biphenyl]-4-yl}-N-(1,1-dioxo-2,3-dihydro-1lambda6-thiophen-3-yl)-N-{[2-(2-hydroxypropan-2-yl)pyridin-4-yl]methyl}-N′,N′-dimethylpropanediamide] | < 500 nM
COc1cc(CN(C(=O)Cc2ccc(S(F)(F)(F)(F)F)cc2F)C2C=CS(=O)(=O)C2)ccn1 (stereo not drawn) [I-22, N-(1,1-dioxido-2,3-dihydrothiophen-3-yl)-2-(2-fluoro-4-(pentafluoro-λ^6-sulfaneyl)phenyl)-N-((2-methoxypyridin-4-yl)methyl)acetamide] | < 500 nM
CN(C)C(=O)C(C(=O)N(Cc1nc(C2CC2)cs1)C1C=CS(=O)(=O)C1)c1ccc(-c2ccc(F)cc2)cc1F (stereo not drawn) [I-23, N′-[(4-cyclopropyl-1,3-thiazol-2-yl)methyl]-2-{3,4′-difluoro-[1,1′-biphenyl]-4-yl}-N′-(1,1-dioxo-2,3-dihydro-1lambda6-thiophen-3-yl)-N,N-dimethylpropanediamide] | < 500 nM
CN(C)C(=O)C(C(=O)N(Cc1ccnc(C(C)(C)O)c1)C1C=CS(=O)(=O)C1)c1ccc(-c2ccc(F)c(F)c2)cc1F (stereo not drawn) [I-24, N′-(1,1-dioxo-2,3-dihydro-1lambda6-thiophen-3-yl)-N′-{[2-(2-hydroxypropan-2-yl)pyridin-4-yl]methyl}-N,N-dimethyl-2-{3,3′,4′-trifluoro-[1,1′-biphenyl]-4-yl}propanediamide] | < 500 nM
CN(C)C(=O)C(C(=O)N(Cc1nc(C2CC2)cs1)C1C=CS(=O)(=O)C1)c1ccc(-c2ccc(F)c(F)c2)cc1F (stereo not drawn) [I-25, N′-[(4-cyclopropyl-1,3-thiazol-2-yl)methyl]-N′-(1,1-dioxo-2,3-dihydro-1lambda6-thiophen-3-yl)-N,N-dimethyl-2-{3,3′,4′-trifluoro-[1,1′-biphenyl]-4-yl}propanediamide] | < 500 nM
